Data reported in patent US8715735B2, “Stabilised supersaturated solids of lipophilic drugs” (Bayer Intellectual Property GmbH, priority 2004, dated 2014).

Columns and labels:
[1] = Saturation concentration of estradiol valerate in solvent at room temperature; type: physicochemical
Description: The resulting liquid is mixed with 1000 g Aeroperl® 300 to give a powder with homogeneously absorbed liquid. 24 mg of the described stabilised supersaturated formulation contains 1 mg estradiol valerate. […] The resulting liquid is mixed with 1667 g Aeroperl® 300 to give a powder with homogeneously absorbed liquid. 67 mg of the described stabilised supersaturated formulation contains 1 mg estradiol valerate. […] The resulting liquid is mixed with 1000 g Aeroperl® 300 to give a powder with homogeneously absorbed liquid. 44 mg of the described stabilised supersaturated formulation contains 1 mg estradiol valerate.

[2] = In-vitro dissolution test, USP XXVIII paddle apparatus 2, 0.4% aqueous sodium dodecyl sulfate; type: physicochemical; details: approx. 1 mg estradiol valerate tested, 1000 mL 0.4% SDS, 37° C., 75 rpm
Description: Formulations according to the examples 1 to 4 were investigated in an in-vitro dissolution test according to USP XXVIII Paddle apparatus 2 using 1000 mL of an 0.4% aqueous solution of sodium dodecyl sulfate as dissolution medium to ensure sink condition (37° C., 75 rpm). The amount of formulations to be tested was selected so that the composition contains approx. 1 mg of estradiol valerate. As reference, 1 mg unformulated estradiol valerate was investigated.

CCCCC(=O)O[C@H]1CC[C@H]2[C@@H]3CCc4cc(O)ccc4[C@H]3CC[C@]12C [estradiol valerate]
saturation concentration ([1]; in medium chain triglycerides (MCT) at room temperature): approx. 27 g/L | saturation concentration ([1]; in peanut oil at room temperature): approx. 30 g/L | saturation concentration ([1]; in polyethylene glycol (PEG) 400 at room temperature): approx. 50 g/L | Release estradiol valerate, 3 min ([2]; 3 min): 0.34 mg | Release estradiol valerate, 6 min ([2]; 6 min): 0.41 mg | Release estradiol valerate, 10 min ([2]; 10 min): 0.47 mg | Release estradiol valerate, 15 min ([2]; 15 min): 0.67 mg | Release estradiol valerate, 30 min ([2]; 30 min): 0.76 mg
